Like-named read-outs stand apart in the source and are kept apart here.
Legend:
KDM4C = target: T1, KDM4C (Homo sapiens, UniProt Q9H3R0); experiment: KDM4C AlphaScreen assay; assay type: biochemical
T1 construct: Full length of KDM5B and KDM4C protein were purchased from Active Motif; purchased Active Motif 31858
T1 sequence (Q9H3R0 1-1056): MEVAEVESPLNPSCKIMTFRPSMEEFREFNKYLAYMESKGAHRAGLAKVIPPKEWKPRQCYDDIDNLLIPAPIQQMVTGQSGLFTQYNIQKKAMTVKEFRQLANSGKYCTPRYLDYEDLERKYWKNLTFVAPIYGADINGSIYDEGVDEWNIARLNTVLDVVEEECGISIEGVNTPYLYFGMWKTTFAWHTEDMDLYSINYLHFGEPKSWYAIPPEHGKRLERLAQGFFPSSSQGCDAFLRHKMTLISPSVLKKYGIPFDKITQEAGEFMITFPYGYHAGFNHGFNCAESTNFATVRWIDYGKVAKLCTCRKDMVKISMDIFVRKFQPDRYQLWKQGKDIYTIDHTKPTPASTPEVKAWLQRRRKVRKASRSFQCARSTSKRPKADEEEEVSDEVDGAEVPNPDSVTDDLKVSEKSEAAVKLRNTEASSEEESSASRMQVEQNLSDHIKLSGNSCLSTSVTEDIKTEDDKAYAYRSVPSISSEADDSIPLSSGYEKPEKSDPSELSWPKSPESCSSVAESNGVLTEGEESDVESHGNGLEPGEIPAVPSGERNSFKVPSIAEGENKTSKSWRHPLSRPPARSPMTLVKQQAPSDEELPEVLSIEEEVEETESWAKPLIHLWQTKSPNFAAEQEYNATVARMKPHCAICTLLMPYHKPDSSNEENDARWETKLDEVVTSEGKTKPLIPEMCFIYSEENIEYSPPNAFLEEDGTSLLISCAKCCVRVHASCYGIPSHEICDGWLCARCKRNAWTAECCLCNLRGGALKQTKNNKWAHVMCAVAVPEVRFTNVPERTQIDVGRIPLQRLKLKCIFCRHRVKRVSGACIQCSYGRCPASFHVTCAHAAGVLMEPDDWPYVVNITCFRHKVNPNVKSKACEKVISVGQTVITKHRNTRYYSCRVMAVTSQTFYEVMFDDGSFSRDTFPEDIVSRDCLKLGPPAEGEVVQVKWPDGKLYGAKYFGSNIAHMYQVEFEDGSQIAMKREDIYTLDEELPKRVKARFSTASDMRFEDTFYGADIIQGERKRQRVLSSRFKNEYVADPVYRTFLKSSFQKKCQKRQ
Experimental: (§1) KDM4C and KDM5B AlphaScreen Assay Material and Method
(§2) Compounds disclosed herein were (and can be) screened using the following assay.
Peptides used in all experiments were purchased from Anaspe. Full length of KDM5B and KDM4C protein were purchased from Active Motif: KDM5B (cat#31832) and KDM4C (Cat #31858). Final concentration of KDM5B and KDM4C used in the assay were 0.5 nM and 0.2 nM. Final concentration of peptides for 5B and 4C used in the assay were 3 nM.
AlphaScreen assays was conducted as following protocol: buffer used to make compound plate or DMSO is composed of 50 mM HEPES pH 7.4, 0.003% Tween-20; buffer used to dilute enzyme is composed of 50 mM HEPES pH 7.4, 0.003% Tween-20, 0.01% BSA, 500 μM TCEP; and buffer used to dilute the substrate is composed of 50 mM HEPES pH 7.4, 0.003% Tween-20, (NH4)2Fe(SO4)2 15 μM, alpha-ketoglutaric acid 4 μM and L-ascorbic acid 100 μM. 4 μL of KDM5B or KDM4C protein were added to 384-well OptiPlate by using multiflow, followed by 4 μl of either buffer or compound. Plates were sealed, spun down and incubated at RT for 15 min. 4 μl of biotinylated peptide was added to the plate, the plate was incubated at room temperature for 25 minutes (KDM5B) and 30 minutes (KDM4C) after sealed and spun down. Streptavidin donor beads and acceptor beads were diluted and mixed in the detection buffer with 7.5 mM EDTA, followed by adding 8 μl of acceptor and donor beads mix to the plate, before the plate was sealed and incubated at room temperature for 3 h or overnight at dark. The plate was read on Envision plate reader (PerkinElmer) using Alphascreen protocol. IC50s were calculated in GraphPad Prism 6.

KDM5B = target: T2, KDM5B (Homo sapiens, UniProt Q9UGL1); experiment: biochemical
T2 construct: Full length of KDM5B and KDM4C protein were purchased from Active Motif; purchased Active Motif 31832
T2 sequence (Q9UGL1 whole entry): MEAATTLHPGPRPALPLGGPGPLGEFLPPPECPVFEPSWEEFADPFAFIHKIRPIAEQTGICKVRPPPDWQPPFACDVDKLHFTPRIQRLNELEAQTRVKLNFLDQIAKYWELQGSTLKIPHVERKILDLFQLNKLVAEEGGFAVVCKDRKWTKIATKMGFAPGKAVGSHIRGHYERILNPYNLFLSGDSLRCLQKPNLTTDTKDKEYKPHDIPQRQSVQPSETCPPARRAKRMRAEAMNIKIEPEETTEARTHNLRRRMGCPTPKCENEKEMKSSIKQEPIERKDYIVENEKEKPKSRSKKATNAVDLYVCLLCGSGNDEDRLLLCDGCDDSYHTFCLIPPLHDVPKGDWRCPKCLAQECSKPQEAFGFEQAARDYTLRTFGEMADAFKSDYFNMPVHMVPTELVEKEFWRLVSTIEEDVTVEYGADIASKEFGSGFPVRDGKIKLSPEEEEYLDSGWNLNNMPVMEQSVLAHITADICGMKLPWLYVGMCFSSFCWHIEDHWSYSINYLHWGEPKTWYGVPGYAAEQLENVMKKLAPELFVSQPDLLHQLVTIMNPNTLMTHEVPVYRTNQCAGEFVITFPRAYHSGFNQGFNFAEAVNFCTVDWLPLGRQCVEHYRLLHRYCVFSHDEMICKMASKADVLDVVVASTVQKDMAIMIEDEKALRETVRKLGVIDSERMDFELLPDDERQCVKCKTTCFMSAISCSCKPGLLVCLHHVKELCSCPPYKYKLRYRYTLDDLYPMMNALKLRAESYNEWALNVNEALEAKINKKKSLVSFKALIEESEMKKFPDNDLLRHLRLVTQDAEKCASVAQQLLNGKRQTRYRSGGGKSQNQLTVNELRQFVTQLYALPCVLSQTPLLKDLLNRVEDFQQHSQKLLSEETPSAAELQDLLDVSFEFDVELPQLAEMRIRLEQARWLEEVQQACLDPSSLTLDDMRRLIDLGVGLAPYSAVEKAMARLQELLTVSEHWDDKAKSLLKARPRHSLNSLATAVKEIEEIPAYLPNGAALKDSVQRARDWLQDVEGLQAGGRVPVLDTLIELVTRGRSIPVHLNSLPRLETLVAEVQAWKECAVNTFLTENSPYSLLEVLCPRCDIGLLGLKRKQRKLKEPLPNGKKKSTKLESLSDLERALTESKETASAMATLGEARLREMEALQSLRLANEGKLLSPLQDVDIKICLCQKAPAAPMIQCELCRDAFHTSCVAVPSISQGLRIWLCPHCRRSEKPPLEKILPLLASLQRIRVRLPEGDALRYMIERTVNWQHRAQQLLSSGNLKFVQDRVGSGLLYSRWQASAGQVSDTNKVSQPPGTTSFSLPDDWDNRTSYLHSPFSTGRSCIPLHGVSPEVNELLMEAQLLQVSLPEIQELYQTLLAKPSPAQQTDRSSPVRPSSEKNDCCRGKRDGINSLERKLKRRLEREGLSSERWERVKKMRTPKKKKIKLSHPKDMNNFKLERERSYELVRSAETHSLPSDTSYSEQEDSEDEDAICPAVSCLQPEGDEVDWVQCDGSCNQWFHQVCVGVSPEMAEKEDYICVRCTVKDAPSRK
Experimental: as §1, §2
Peptides used in all experiments were purchased from Anaspe. […] Final concentration of KDM5B and KDM4C used in the assay were 0.5 nM and 0.2 nM. Final concentration of peptides for 5B and 4C used in the assay were 3 nM.
4 μL of KDM5B or KDM4C protein were added to 384-well OptiPlate by using multiflow, followed by 4 μl of either buffer or compound. Plates were sealed, spun down and incubated at RT for 15 min. 4 μl of biotinylated peptide was added to the plate, the plate was incubated at room temperature for 25 minutes (KDM5B) and 30 minutes (KDM4C) after sealed and spun down. Streptavidin donor beads and acceptor beads were diluted and mixed in the detection buffer with 7.5 mM EDTA, followed by adding 8 μl of acceptor and donor beads mix to the plate, before the plate was sealed and incubated at room temperature for 3 h or overnight at dark. The plate was read on Envision plate reader (PerkinElmer) using Alphascreen protocol. IC50s were calculated in GraphPad Prism 6.

[1] = AlphaScreen, full length KDM4C 0.2 nM, biotinylated H3K9Me3 peptide 3 nM, 30 minutes at room temperature
[2] = AlphaScreen, full length KDM5B 0.5 nM, biotinylated H3K4Me3 peptide 3 nM, 25 minutes at room temperature, read-out: KDM5B (IC50)

Row | SMILES | IC50 (KDM4C; [1]) [nM] | IC50 (KDM5B) [nM] | IC50 (KDM4C) [nM] | IC50 (KDM5B; [2]) [nM]
1 | CC(C)c1c(O)nc(-n2ccnc2)nc1OCC(=O)O [Example 15, 2-{[6-hydroxy-2-(1H-imidazol-1-yl)-5-(propan-2-yl)pyrimidin-4-yl]oxy}acetic acid] | 10300 | 651 | – | –
2 | CC(C)c1c(O)nc(-n2ccnc2)nc1OCC(=O)N1CCN(C)CC1 [Example 16, 2-{[6-hydroxy-2-(1H-imidazol-1-yl)-5-(propan-2-yl)pyrimidin-4-yl]oxy}-1-(4-methylpiperazin-1-yl)ethan-1-one] | – | 26 | 5730 | –
3 | CC(C)c1c(O)nc(-n2ccnc2)nc1OCC(=O)NS(C)(=O)=O [Example 17, 2-{[6-hydroxy-2-(1H-imidazol-1-yl)-5-(propan-2-yl)pyrimidin-4-yl]oxy}-N-methanesulfonylacetamide] | 9570 | 148 | – | –
4 | CC(C)c1c(O)nc(-n2ccnc2)nc1NCc1cccnc1 [Example 18, 2-(1H-Imidazol-1-yl)-5-isopropyl-6-((pyridin-3-ylmethyl)amino)pyrimidin-4-ol] | 2970 | 27 | – | –
5 | CC(C)c1c(O)nc(-c2cncs2)nc1OCc1cccnc1 [Example 19, 5-(propan-2-yl)-6-(pyridin-3-ylmethoxy)-2-(1,3-thiazol-5-yl)pyrimidin-4-ol] | 1790 | 91 | – | –
6 | CC(C)c1c(O)nc(-c2cncs2)nc1-c1cnn(Cc2ccccc2)c1 [Example 20, 6-(1-Benzyl-1H-pyrazol-4-yl)-5-(propan-2-yl)-2-(1,3-thiazol-5-yl)pyrimidin-4-ol] | 11200 | 100 | – | –
7 | Cc1nc(-c2c[nH]cn2)nc(O)c1C(C)C [Example 21, 2-(1H-imidazol-4-yl)-5-isopropyl-6-methylpyrimidin-4-ol] | 21100 | 1930 | – | –
8 | Cc1nc(-n2ccnc2)nc(O)c1C(C)C [Example 22, 2-(1H-imidazol-1-yl)-5-isopropyl-6-methylpyrimidin-4-ol] | 470 | 16 | – | –
9 | Cc1nc(-n2ccnc2N)nc(O)c1C(C)C [Example 23, 2-(2-aminoimidazol-1-yl)-5-isopropyl-6-methyl-pyrimidin-4-ol] | 775 | 24 | – | –
10 | Cc1nc(-n2cncc2CO)nc(O)c1C(C)C [Example 24a, 2-[5-(hydroxymethyl)imidazol-1-yl]-5-isopropyl-6-methyl-pyrimidin-4-ol] | 499 | 45 | – | –
11 | Cc1nc(-n2cnc(CO)c2)nc(O)c1C(C)C [Example 24b, 2-[4-(hydroxymethyl)imidazol-1-yl]-5-isopropyl-6-methyl-pyrimidin-4-ol] | 16800 | 1260 | – | –
12 | Cc1nc(-n2ccnc2CO)nc(O)c1C(C)C [Example 25, 2-[2-(hydroxymethyl)imidazol-1-yl]-5-isopropyl-6-methyl-pyrimidin-4-ol] | 613 | 48 | – | –
13 | Cc1nc(-c2cn[nH]c2)nc(O)c1C(C)C [Example 26, 5-Isopropyl-6-methyl-2-(1H-pyrazol-4-yl)pyrimidin-4-ol] | 15800 | 1070 | – | –
14 | CC(C)c1c(O)nc(-n2ccnc2)nc1Oc1cccnc1 [Example 28a, 2-(1H-Imidazol-1-yl)-5-isopropyl-6-(pyridin-3-yloxy)pyrimidin-4-ol] | 1750 | 32 | – | –
15 | CC(C)c1c(O)nc(-n2ccnc2)nc1-n1ccnc1 [Example 28b, 2,6-di(1H-imidazol-1-yl)-5-isopropylpyrimidin-4-ol] | 1650 | 19 | – | –
16 | CC(C)c1c(O)nc(-n2ccnc2)nc1OCc1cccnc1 [Example 29, 2-(1H-Imidazol-1-yl)-5-isopropyl-6-(pyridin-3-ylmethoxy)pyrimidin-4-ol] | 502 | 9 | – | –
17 | CC(C)c1c(O)nc(-c2cncs2)nc1-c1cnn(C)c1 [Example 30, 5-isopropyl-6-(1-methyl-1H-pyrazol-4-yl)-2-(thiazol-5-yl)pyrimidin-4-ol] | 15300 | 345 | – | –
18 | Cc1nc(-c2cncn2C)nc(O)c1C(C)C [Example 31, 6-methyl-2-(1-methyl-1H-imidazol-5-yl)-5-(propan-2-yl)pyrimidin-4-ol] | 5680 | 74 | – | –
19 | Oc1nc(-c2cncs2)ncc1C1CC1 [Example 32, 5-cyclopropyl-2-(thiazol-5-yl)pyrimidin-4-ol] | 14100 | 4420 | – | –
20 | Oc1nc(-c2cncs2)ncc1C(F)(F)F [Example 33, 2-(1,3-Thiazol-5-yl)-5-(trifluoromethyl)pyrimidin-4-ol] | 3640 | 2530 | – | –
21 | CC(C)c1c(O)nc(-n2ccnc2)nc1-c1cccc(CN)c1 [Example 41, 6-[3-(Aminomethyl)phenyl]-2-(1H-imidazol-1-yl)-5-(propan-2-yl)pyrimidin-4-ol] | 281 | – | – | 3
22 | CC(C)c1c(O)nc(-n2ccnc2)nc1-c1ccc(CN)cc1 [Example 42, 6-[4-(Aminomethyl)phenyl]-2-(1H-imidazol-1-yl)-5-(propan-2-yl)pyrimidin-4-ol] | 554 | 4 | – | –
23 | CC(=O)NCc1ccc(-c2nc(-n3ccnc3)nc(O)c2C(C)C)cc1 [Example 43, N-({4-[6-Hydroxy-2-(1H-imidazol-1-yl)-5-(propan-2-yl)pyrimidin-4-yl]phenyl}-methyl)acetamide] | 1110 | – | – | 9
24 | CC(C)c1c(O)nc(-n2ccnc2)nc1-c1cnn(CCC#N)c1 [Example 44, 3-{4-[6-Hydroxy-2-(1H-imidazol-1-yl)-5-(propan-2-yl)pyrimidin-4-yl]-1H-pyrazol-1-yl}propanenitrile] | 815 | 10 | – | –
25 | CC(C)c1c(O)nc(-n2ccnc2)nc1-c1cnn(Cc2cccnc2)c1 [Example 45, 2-(1H-Imidazol-1-yl)-5-(propan-2-yl)-6-[1-(pyridin-3-ylmethyl)-1H-pyrazol-4-yl]-pyrimidin-4-ol] | 1140 | – | – | 10
26 | CC(C)c1c(O)nc(-n2ccnc2)nc1-c1cn[nH]c1 [Example 46, 2-(1H-Imidazol-1-yl)-5-(propan-2-yl)-6-(1H-pyrazol-4-yl)pyrimidin-4-ol] | 1130 | – | – | 10
27 | CC(C)c1c(O)nc(-n2ccnc2)nc1-c1cnn(C2CC2)c1 [Example 47, 6-(1-Cyclopropyl-1H-pyrazol-4-yl)-2-(1H-imidazol-1-yl)-5-(propan-2-yl)pyrimidin-4-ol] | 771 | 11 | – | –
